Data reported in US8207177B2, “Inhibitors of E1 activating enzymes” (Millennium Pharmaceuticals, Inc., priority 2006, dated 2012).

molecular target: T1, recombinant human NAE enzyme (Homo sapiens, UniProt Q8TBC4); experiment: Nedd8-Activating Enzyme (NAE) HTRF Assay; assay type: biochemical; details: threshold statement: less than or equal to 100 nM; 20 μM ATP, 90 minutes at 24° C.
T1 construct: His (N); made in house; host or cells: Sf9 insect cells (baculovirus, Bac-to-Bac), purified on Ni-NTA
T1 sequence (Q8TBC4 1-463): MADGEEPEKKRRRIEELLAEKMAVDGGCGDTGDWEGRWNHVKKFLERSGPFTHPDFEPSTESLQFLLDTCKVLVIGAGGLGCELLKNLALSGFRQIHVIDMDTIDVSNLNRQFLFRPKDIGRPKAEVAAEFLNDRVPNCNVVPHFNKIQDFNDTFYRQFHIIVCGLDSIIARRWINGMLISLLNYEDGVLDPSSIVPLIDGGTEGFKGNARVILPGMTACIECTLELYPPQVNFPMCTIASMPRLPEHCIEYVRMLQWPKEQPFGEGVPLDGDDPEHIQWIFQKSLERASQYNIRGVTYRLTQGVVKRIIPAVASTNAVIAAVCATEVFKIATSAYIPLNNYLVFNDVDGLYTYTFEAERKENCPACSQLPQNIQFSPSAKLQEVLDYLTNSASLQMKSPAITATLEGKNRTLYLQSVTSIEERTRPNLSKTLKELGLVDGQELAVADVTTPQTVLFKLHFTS
T1 sequence (Q13564 1-534 partner): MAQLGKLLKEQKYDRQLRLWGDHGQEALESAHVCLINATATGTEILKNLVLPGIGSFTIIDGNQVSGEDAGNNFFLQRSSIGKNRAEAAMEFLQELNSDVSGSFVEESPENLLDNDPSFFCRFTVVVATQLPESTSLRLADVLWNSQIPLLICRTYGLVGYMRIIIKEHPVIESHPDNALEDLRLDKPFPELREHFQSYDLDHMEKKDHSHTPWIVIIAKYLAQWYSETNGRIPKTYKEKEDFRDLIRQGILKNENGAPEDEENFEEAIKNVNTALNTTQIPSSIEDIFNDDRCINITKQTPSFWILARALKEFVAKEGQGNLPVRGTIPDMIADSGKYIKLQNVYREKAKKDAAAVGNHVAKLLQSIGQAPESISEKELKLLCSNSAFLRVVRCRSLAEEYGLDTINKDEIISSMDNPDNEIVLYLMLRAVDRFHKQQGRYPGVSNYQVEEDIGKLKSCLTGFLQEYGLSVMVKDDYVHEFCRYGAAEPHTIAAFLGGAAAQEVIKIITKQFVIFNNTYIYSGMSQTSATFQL
Experimental: Following manufacturer instructions, baculoviruses were generated with the Bac-to-Bac Expression System (Invitrogen) for the following proteins: untagged NAEα (APPBP1; NP_003896.1), N-terminally His-tagged NAEβ (UBE1C; NP_003959.3), untagged SAEα (SAE1; NP_005491.1), N-terminally His-tagged SAEβ (UBA2; NP_005490.1), N-terminally His-tagged murine UAE (UBE1X; NP_033483). NAEα/His-NAEβ and SAEα/His-SAEβ complexes were generated by co-infection of Sf9 cells, which were harvested after 48 hours. His-mUAE was generated by single infection of Sf9 cells and harvested after 72 hours. Expressed proteins were purified by affinity chromatography (Ni—NTA agarose, Qiagen) using standard buffers. Ubc12 (UBE2M; NP_003960.1), Ubc9 (UBE2I; NP_003336.1), Ubc2 (UBE2A; NP_003327.2) were subcloned into pGEX (Pharmacia) and expressed as N-terminally GST tagged fusion proteins in E. coli. Expressed proteins were purified by conventional affinity chromatography using standard buffers. Nedd8 (NP_006147), Sumo-1 (NP_003343) and Ubiquitin (with optimized codons) were subcloned into pFLAG-2 (Sigma) and expressed as N-terminally Flag tagged fusion proteins in E. coli. Expressed proteins were purified by conventional chromatography using standard buffers. Nedd8-Activating Enzyme (NAE) HTRF Assay. The NAE enzymatic reaction totaled 50 μL and contained 50 mM HEPES (pH 7.5), 0.05% BSA, 5 mM MgCl2, 20 μM ATP, 250 μM GSH, 0.01 μM Ubc12-GST, 0.075 μM Nedd8-Flag and 0.28 nM recombinant human NAE enzyme. The enzymatic reaction mixture, with and without compound inhibitor, was incubated at 24° C. for 90 minutes in a 384-well plate before termination with 25 μL of Stop/Detection buffer (0.1M HEPES pH 7.5, 0.05% Tween20, 20 mM EDTA, 410 mM KF, 0.53 nM Europium-Cryptate labeled monoclonal anti-FLAG M2 antibody (CisBio International) and 8.125 μg/mL PHYCOLINK goat anti-GST allophycocyanin (XL-APC) antibody (Prozyme)). After incubation for 3 hours at 24° C., quantification of the FRET was performed on the Analyst™ HT 96.384 (Molecular Devices).

Structure (SMILES) | IC50 [nM]
Cc1ncnc2c1ccn2[C@@H]1C[C@@H](COS(N)(=O)=O)[C@@H](O)C1 [Compound I-46, [(1S,2S,4R)-2-hydroxy-4-(4-methyl-7H-pyrrolo[2,3-d]pyrimidin-7-yl)cyclopentyl]methyl sulfamate] | ≤ 100
NS(=O)(=O)OC[C@@H]1C[C@@H](n2ccc3c(CCc4ccccc4)ncnc32)C[C@@H]1O [Compound I-28, {(1S,2S,4R)-2-hydroxy-4-[4-(2-phenylethyl)-7H-pyrrolo[2,3-d]pyrimidin-7-yl]-cyclopentyl}methyl sulfamate] | ≤ 100
CN(c1ncnc2c1ccn2[C@@H]1C[C@@H](COS(N)(=O)=O)[C@@H](O)C1)[C@H]1CCc2ccccc21 [Compound I-6, ((1S,2S,4R)-4-{4-[(1S)-2,3-dihydro-1H-inden-1-yl(methyl)amino]-7H-pyrrolo-[2,3-d]pyrimidin-7-yl}-2-hydroxycyclopentyl)methyl sulfamate] | ≤ 100
NS(=O)(=O)OC[C@@H]1C[C@@H](n2ccc3c(N[C@H]4CCc5cc(F)ccc54)ncnc32)C[C@@H]1O [Compound I-36, [(1S,2S,4R)-4-(4-{[(1S)-5-fluoro-2,3-dihydro-1H-inden-1-yl]amino}-7H-pyrrolo-[2,3-d]pyrimidin-7-yl)-2-hydroxycyclopentyl]methyl sulfamate] | ≤ 100
NS(=O)(=O)OC[C@@H]1C[C@@H](n2ccc3c(NCc4ccc(Cl)cc4Cl)ncnc32)C[C@@H]1O [Compound I-19, ((1S,2S,4R)-4-{4-[(2,4-dichlorobenzyl)amino]-7H-pyrrolo[2,3-d]pyrimidin-7-yl}-2-hydroxycyclopentyl)methyl sulfamate] | ≤ 100
NS(=O)(=O)OC[C@@H]1C[C@@H](n2ccc3c(NCc4ccc5c(c4)OCO5)ncnc32)C[C@@H]1O [Compound I-26, ((1S,2S,4R)-4-{4-[(1,3-benzodioxol-5-ylmethyl)amino]-7H-pyrrolo[2,3-d]-pyrimidin-7-yl}-2-hydroxycyclopentyl)methyl sulfamate] | ≤ 100
CC1(C)C[C@@H](Nc2ncnc3c2ccn3[C@@H]2C[C@@H](COS(N)(=O)=O)[C@@H](O)C2)c2ccccc21 (single isomer, unassigned) [Compound I-21] | ≤ 100
CC(C)O[C@H]1Cc2ccccc2[C@H]1Nc1ncnc2c1ccn2[C@@H]1C[C@@H](COS(N)(=O)=O)[C@@H](O)C1 [Compound I-54, [(1S,2S,4R)-2-hydroxy-4-(4-{[(1R,2S)-2-isopropoxy-2,3-dihydro-1H-inden-1-yl]-amino}-7H-pyrrolo[2,3-d]pyrimidin-7-yl)cyclopentyl]methyl sulfamate] | ≤ 100
NS(=O)(=O)OC[C@@H]1C[C@@H](n2ccc3c(NCc4ccccc4C(F)(F)F)ncnc32)C[C@@H]1O [Compound I-47, [(1S,2S,4R)-2-hydroxy-4-(4-{[2-(trifluoromethyl)benzyl]amino}-7H-pyrrolo-[2,3-d]pyrimidin-7-yl)cyclopentyl]methyl sulfamate] | ≤ 100
NS(=O)(=O)OC[C@@H]1C[C@@H](n2ccc3c(OCc4ccc(Cl)cc4)ncnc32)C[C@@H]1O [Compound I-34, ((1S,2S,4R)-4-{4-[(4-chlorobenzyl)oxy]-7H-pyrrolo[2,3-d]pyrimidin-7-yl}-2-hydroxycyclopentyl)methyl sulfamate] | ≤ 100
NS(=O)(=O)OC[C@@H]1C[C@@H](n2cc(F)c3c(NCc4ccccc4)ncnc32)C[C@@H]1O [Compound I-31, {(1S,2S,4R)-4-[4-(benzylamino)-5-fluoro-7H-pyrrolo[2,3-d]pyrimidin-7-yl]-2-hydroxycyclopentyl}methyl sulfamate] | ≤ 100

More lines, now with the values ahead:

IC50 [nM] | Structure (SMILES)
≤ 100 | NS(=O)(=O)OC[C@@H]1C[C@@H](n2ccc3c(N[C@H]4CCc5c(Br)cccc54)ncnc32)C[C@@H]1O [Compound I-65, [(1S,2S,4R)-4-(4-{[(1S)-4-bromo-2,3-dihydro-1H-inden-1-yl]amino}-7H-pyrrolo[2,3-d]pyrimidin-7-yl)-2-hydroxycyclopentyl]methyl sulfamate]
≤ 100 | NS(=O)(=O)OC[C@@H]1C[C@@H](n2ccc3c(N[C@@H]4CCc5c(Cl)cccc54)ncnc32)C[C@@H]1O [Compound I-63, [(1S,2S,4R)-4-(4-{[(1R)-4-chloro-2,3-dihydro-1H-inden-1-yl]amino}-7H-pyrrolo[2,3-d]pyrimidin-7-yl)-2-hydroxycyclopentyl]methyl sulfamate]
≤ 100 | COC[C@H]1Cc2ccccc2C1Nc1ncnc2c1ccn2[C@@H]1C[C@@H](COS(N)(=O)=O)[C@@H](O)C1 (stereo in doubt) [Compound I-80, [(1S,2S,4R)-2-hydroxy-4-(4-{[(1S,2S)-2-(methoxymethyl)-2,3-dihydro-1H-inden-1-yl]amino}-7H-pyrrolo[2,3-d]pyrimidin-7-yl)cyclopentyl]methyl sulfamate]
≤ 100 | CO[C@H]1Cc2ccccc2[C@H]1Nc1ncnc2c1ccn2[C@@H]1C[C@@H](CNS(N)(=O)=O)[C@@H](O)C1 [Compound I-74, N-{[(1S,2S,4R)-2-hydroxy-4-(4-{[(1R,2S)-2-methoxy-2,3-dihydro-1H-inden-1-yl]amino}-7H-pyrrolo[2,3-d]pyrimidin-7-yl)cyclopentyl]methyl}sulfamide]
≤ 100 | NS(=O)(=O)OC[C@@H]1C[C@@H](n2ccc3c(N[C@H]4CCc5cccc(F)c54)ncnc32)C[C@@H]1O [Compound I-66, [(1S,2S,4R)-4-(4-{[(1S)-7-fluoro-2,3-dihydro-1H-inden-1-yl]amino}-7H-pyrrolo[2,3-d]pyrimidin-7-yl)-2-hydroxycyclopentyl]methyl sulfamate]
≤ 100 | C[C@H]1Cc2ccccc2[C@H]1Nc1ncnc2c1ccn2[C@@H]1C[C@@H](COS(N)(=O)=O)[C@@H](O)C1 [Compound I-82, [(1S,2S,4R)-2-hydroxy-4-(4-{[(1S,2S)-2-methyl-2,3-dihydro-1H-inden-1-yl]amino}-7H-pyrrolo[2,3-d]pyrimidin-7-yl)cyclopentyl]methyl sulfamate]
≤ 100 | NS(=O)(=O)OC[C@@H]1C[C@@H](n2cc(F)c3c(N[C@H]4CCc5ccccc54)ncnc32)C[C@@H]1O [Compound I-68, ((1S,2S,4R)-4-{4-[(1S)-2,3-dihydro-1H-inden-1-ylamino]-5-fluoro-7H-pyrrolo[2,3-d]pyrimidin-7-yl}-2-hydroxycyclopentyl)methyl sulfamate]
≤ 100 | CC[C@H]1Cc2ccccc2[C@H]1Nc1ncnc2c1ccn2[C@@H]1C[C@@H](COS(N)(=O)=O)[C@@H](O)C1 [Compound I-84, [(1S,2S,4R)-4-(4-{[(1S,2S)-2-ethyl-2,3-dihydro-1H-inden-1-yl]amino}-7H-pyrrolo[2,3-d]pyrimidin-7-yl)-2-hydroxycyclopentyl]methyl sulfamate]
≤ 100 | NS(=O)(=O)OC[C@@H]1C[C@@H](n2ccc3c(N[C@@H]4c5ccccc5C[C@@H]4O)ncnc32)C[C@@H]1O [Compound I-71, [(1S,2S,4R)-2-hydroxy-4-(4-{[(1R,2S)-2-hydroxy-2,3-dihydro-1H-inden-1-yl]amino}-7H-pyrrolo[2,3-d]pyrimidin-7-yl)cyclopentyl]methyl sulfamate]
